Drawing on patent US20110201564A1, “SUBSTITUTED 7-SULFANYLMETHYL, 7-SULFINYLMETHYL AND 7-SULFONYLMETHYL INDOLES AND USE THEREOF” (BAYER SCHERING PHARMA AKTIENGESELLSCHAFT, priority 2008, published 2011), this text covers IC50 and Partition ratio r for 4 compounds.

Where two headings read alike, the source gives them in different places. A value given as a limit tells only on which side of the number the result lay.

Series [1] has as its target T1, human mineralocorticoid receptor (MR) (Homo sapiens, UniProt P08235).
T1 construct: expressed in transfected cells; host or cells: CHO K1
T1 sequence (P08235 734-984 limits assumed): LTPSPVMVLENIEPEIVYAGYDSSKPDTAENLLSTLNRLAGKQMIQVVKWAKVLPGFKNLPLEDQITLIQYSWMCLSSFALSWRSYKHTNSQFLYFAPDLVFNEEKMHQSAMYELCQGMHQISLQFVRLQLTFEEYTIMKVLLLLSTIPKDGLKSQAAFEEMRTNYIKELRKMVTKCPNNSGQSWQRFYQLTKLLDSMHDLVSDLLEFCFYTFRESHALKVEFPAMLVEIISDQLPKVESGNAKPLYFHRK
In words: Cellular in vitro assay, GAL4-MR chimera luciferase reporter in CHO K1 cells (inhibitory MR activity). Type of series: cell-based. As to conditions: antagonism vs aldosterone; CHO K1 GAL4-MR LBD luciferase reporter. In short, it runs like this:
(§1)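 CHO K1 cells stably expressing GAL4 DNA-binding domain fused to human MR, PR or AR ligand-binding domains plus GAL4-driven firefly luciferase; compounds added 10–30 min before agonist (aldosterone, progesterone or dihydrotestosterone), luciferase read after 5–6 h; IC50 from sigmoidal concentration–response curves.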

Series [2] addresses T2, progesterone receptor (PR) (Homo sapiens, UniProt P06401).
T2 construct: of the progesterone receptor (PR, amino acids 680-933); expressed in transfected cells; host or cells: CHO K1
T2 sequence (P06401 680-933): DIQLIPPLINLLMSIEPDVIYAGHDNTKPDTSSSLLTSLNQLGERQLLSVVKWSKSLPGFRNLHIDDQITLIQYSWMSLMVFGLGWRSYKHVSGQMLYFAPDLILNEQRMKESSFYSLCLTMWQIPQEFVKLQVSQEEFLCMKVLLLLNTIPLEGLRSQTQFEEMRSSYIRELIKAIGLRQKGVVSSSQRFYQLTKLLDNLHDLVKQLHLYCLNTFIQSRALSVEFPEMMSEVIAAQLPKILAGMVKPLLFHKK
In words: Cellular in vitro assay, GAL4-PR chimera luciferase reporter in CHO K1 cells (selectivity). Format: cell-based. As to conditions: antagonism vs progesterone; CHO K1 GAL4-PR LBD luciferase reporter. An outline of the steps:
as §1
Background: A reporter such as luciferase makes a cellular process visible.

Series [3] has as its target T3, androgen receptor (AR) (Homo sapiens, UniProt P10275).
T3 construct: of the androgen receptor (AR, amino acids 667-919); expressed in transfected cells; host or cells: CHO K1
T3 sequence (P10275 668-920): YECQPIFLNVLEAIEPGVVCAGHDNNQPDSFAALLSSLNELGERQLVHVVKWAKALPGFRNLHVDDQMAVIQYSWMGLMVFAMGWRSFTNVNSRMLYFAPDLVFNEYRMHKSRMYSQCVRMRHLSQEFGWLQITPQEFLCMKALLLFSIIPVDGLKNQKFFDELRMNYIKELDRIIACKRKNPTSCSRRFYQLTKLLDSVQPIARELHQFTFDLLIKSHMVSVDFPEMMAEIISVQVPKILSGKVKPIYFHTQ
Put plainly: Cellular in vitro assay, GAL4-AR chimera luciferase reporter in CHO K1 cells (selectivity). Format: cell-based. As to conditions: antagonism vs dihydrotestosterone; CHO K1 GAL4-AR LBD luciferase reporter. An outline of the steps:
as §1

Series [4] has as its target T4, CYP3A4 (Homo sapiens, UniProt P08684).
T4 construct: using human liver microsomes (pool from various individuals); from tissue; host or cells: human liver microsomes (pool from various individuals)
In words: Assay to assess irreversible CYP3A4 inhibition (mechanism-based inhibition) in human liver microsomes. Type of series: in vitro ADME. The note with it: CYP3A4 activity as 6β-hydroxytestosterone formation, 2-20 μM. The text has this:
8. Assay to Assess Irreversible CYP3A4 Inhibition
Cytochrom P450 enzyme inhibition, especially irreversible enzyme inhibition, also referred to as mechanism-based inhibition (MBI), is an unwanted metabolic property of a substance which may, on concurrent administration of other medicaments, lead to considerable drug interactions. Criteria for the presence of an irreversible inhibition are a time-, concentration- and cofactor- (nicotinamide adenine dinucleotide phosphate, NADPH) dependent inhibition. To this end, the compounds of the invention are incubated in vitro with human liver microsomes, the influence on the CYP3A4 activity and the metabolic degradation of the novel active ingredient is determined, and the prototypical parameters kinact, Ki and the partition ratio r are ascertained therefrom.
The compounds of the invention are incubated with concentrations of 2-20 μM. To this end, stock solutions of the active ingredients with a concentration of 0.2-2 mM are prepared in acetonitrile and then pipetted with a 1:100 dilution into the incubation mixture. The liver microsomes are incubated in 50 mM potassium phosphate buffer (pH 7.4) with and without NADPH-generating system consisting of 1 mM NADP^+, 5 mM glucose 6-phosphate and 1 unit of glucose 6-phosphate dehydrogenase, at 37° C. After defined preincubation times of 0-50 min, aliquots are removed from these mixtures, diluted 1:25 in a new incubation, and incubated in the presence of testosterone and new NADPH-generating system again for 20 min. These incubation mixtures are stopped with acetonitrile (final concentration about 30% v/v), and the protein is removed by centrifugation at about 15 000×g. The samples stopped in this way are either analyzed directly or stored at −20° C. until analyzed.
The analysis takes place by high performance liquid chromatography with mass spectrometry detection (LC-MS). The formation of 6β-hydroxytestosterone as measure of CYP3A4 activity, and the test substance still remaining is quantified. The parameters kinact, Ki and the partition ratio r are determined therefrom so as to assess the novel active ingredients in relation to MBI.
For orientation: Microsomes from liver hold many membrane-bound enzymes, among them those of drug oxidation.

For series [5], the target named is T4, CYP3A4. Put plainly: CYP inhibition assay with human liver microsomes. Format: in vitro ADME. The text has this: Inhibitory properties of an active ingredient on the cytochromes P450 (CYP) of the human body may entail extensive clinical effects (drug interactions) because most of the prescribed medicaments are degraded (metabolized) by these enzymes. The ones involved in this are in particular the CYP isoenzymes of the 1A and 2C families, CYP2D6 and, with a proportion of almost 50%, CYP3A4. In order to preclude or minimize these possible drug interactions (Drug-Drug Interactions, DDI), the ability of substances to be able to inhibit CYP1A2, CYP2C8, CYP2C9, CYP2D6 and CYP3A4 in humans is investigated using human liver microsomes (pool from various individuals). This takes place by measuring CYP isoform-specific metabolites formed from standard substrates such as, for example, phenacetin, amodiaquin, diclofenac, dextromethorphan, midazolam and testosterone. The inhibitory effects are investigated at six different concentrations of the test compounds (1.5, 3.1, 6.3, 12.5, 25 and 50 μM as maximum concentration or 0.6, 1.3, 2.5, 5, 10 and 20 μM as maximum concentration), comparing with the extent of the CYP isoform-specific metabolite formation of the standard substrates in the absence of the test compounds, and calculating the corresponding IC50 values. CYP isoform-specific standard inhibitors such as, for example, fluvoxamine, quercetin, sulfaphenazole, fluoxetine and ketoconazole serve as control of the results obtained. In order to obtain indications of the possible mechanism-based inhibitors (MBI) on CYP3A4, the human liver microsomes are incubated in the presence of the inhibitor to be investigated for 30 minutes before the addition of midazolam or testosterone as standard substrates of CYP3A4. A reduction in the IC50 obtained by comparison with the mixture without preincubation serves as an indicator of a mechanism-based inhibition. Mibefradil serves as positive control.
The incubations of the standard substrates with human liver microsomes (23-233 μg/mL) in the presence of the test compound (as potential inhibitor) are carried out in 96-well plates in a workstation (Tecan, Genesis, Crailsheim, Germany) at 37° C. The incubation times are 15-20 minutes. The test compounds are preferably dissolved in acetonitrile (1.0 or 2.5 mM stock solution). The 96-well plates are produced by sequential addition of a stock solution of NADP+, EDTA, glucose 6-phosphate and glucose-6-phosphate dehydrogenase in phosphate buffer (pH 7.4), the test compound, and a solution of standard substrate and human liver microsomes in phosphate buffer (pH 7.4). The total volume is 200 μl. The corresponding control incubations with and without standard inhibitor also take place on the 96-well plate. The incubations are stopped after the respective incubation time by adding 100 μl of acetonitrile in which there is a suitable internal standard. Precipitated proteins are removed by centrifugation (3000 rpm, 10 minutes, 10° C.). The resulting supernatants of the respective plates are combined on one plate and analyzed by LC-MS/MS. The […] values are generated from the resulting measured data and used to assess the inhibitory potential of the test compound.

T4 sequence (P08684 whole entry): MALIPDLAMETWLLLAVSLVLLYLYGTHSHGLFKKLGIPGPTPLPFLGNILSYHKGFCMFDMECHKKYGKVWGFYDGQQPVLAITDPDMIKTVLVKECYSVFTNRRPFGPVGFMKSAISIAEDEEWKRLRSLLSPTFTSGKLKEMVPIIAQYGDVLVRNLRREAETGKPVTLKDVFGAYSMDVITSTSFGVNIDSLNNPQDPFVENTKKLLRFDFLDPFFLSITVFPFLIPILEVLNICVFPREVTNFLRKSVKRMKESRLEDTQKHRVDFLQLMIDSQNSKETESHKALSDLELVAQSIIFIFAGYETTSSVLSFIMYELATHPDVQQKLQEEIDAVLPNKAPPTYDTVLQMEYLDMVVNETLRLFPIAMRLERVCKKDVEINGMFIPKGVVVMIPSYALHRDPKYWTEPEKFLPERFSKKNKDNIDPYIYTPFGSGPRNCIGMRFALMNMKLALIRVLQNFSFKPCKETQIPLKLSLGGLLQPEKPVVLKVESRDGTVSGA

Turning to `CS(=O)(=O)Cc1cccc2c(C(CCC#N)c3ccc(C(F)(F)F)cc3)c[nH]c12` (single isomer, unassigned) [Example 56-1, 4-{7-[(Methylsulfonyl)methyl]-1H-indol-3-yl}-4-[4-(trifluoromethyl)phenyl]butanonitrile], the values for the IC50 in series [1], in series [2] and in series [3] were 0.09 µM, 4.07 µM and 5.67 µM, respectively. For the same compound, the Partition ratio r in series [4] was 100.
With `CS(=O)(=O)Cc1cccc2c(C(c3ccc(F)cc3)c3ccc(Cl)cc3F)c[nH]c12` (single isomer, unassigned) [Example 118-1, 3-[(4-Chloro-2-fluorophenyl)(4-fluorophenyl)methyl]-7-[(methylsulfonyl)methyl]-1H-indole], the IC50 in series [5] (30 min preincubation with test compound before substrate, read-out: CYP 3A4 Preincubation, 30 min.) was 11.2 µM; in series [5] (without preincubation, read-out: CYP 3A4 Coincubation) it was above 20 µM. In addition, the Partition ratio r in series [4] was determined as 250.
On to `CS(=O)(=O)Cc1cc(F)cc2c(C(c3ccc(F)cc3Cl)C3CC3C#N)c[nH]c12` (single isomer, unassigned) [Example 266-1, 2-[(2-Chloro-4-fluorophenyl){5-fluoro-7-[(methylsulfonyl)methyl]-1H-indol-3-yl}methyl]cyclopropanecarbonitrile], for which the IC50 turned out to be 0.007 µM in series [1], 3 µM in series [2] and 1.29 µM in series [3]. In series [4], the Partition ratio r is above 200.
For `CS(=O)(=O)Cc1cc(F)cc2c(C(c3ccc(Cl)cc3)C3CC3C#N)c[nH]c12` (single isomer, unassigned) [Example 277-1-1, 2-[(4-Chlorophenyl){5-fluoro-7-[(methylsulfonyl)methyl]-1H-indol-3-yl}methyl]cyclopropane-carbonitrile] the same measures were 0.008 µM, 10 µM, 3.9 µM and above 200.
